Common to all, as to format: ADME, organism-based
Data set [1] can be described thus: Clearance in rat at 10 mg/kg, po. Also on record: dose 10 mg/kg, route oral. To be noted: in vivo.
Data set [2] is described as follows: Volume of distribution at steady state in rat at 10 mg/kg, po and 3 mg/kg, iv. The following applies: in vivo, read-out: Vdss.
Data set [3] is described as follows: Half life in rat at 10 mg/kg, po and 3 mg/kg, iv. The following applies: in vivo.
Data set [4] in a line: Oral bioavailability in rat at 10 mg/kg. To be noted: in vivo.

Data on 13 compounds can be found in ChEMBL document CHEMBL2406904, “Mitigation of cardiovascular toxicity in a series of CSF-1R inhibitors, and the identification of AZD7507” (Bioorg Med Chem Lett, 2013).

SMILES strings stand for the structures.

One may read the CL/F as clearance divided by bioavailability, as obtained after extravascular dosing. Broadly, the half-life is the time needed for the level to fall by half in the phase considered. As a reminder, the bioavailability is dose-corrected exposure relative to a reference, in per cent. Higher therefore signals much systemic uptake.

In data set [1], `COc1cc2nnc(C(N)=O)c(Nc3ccc(C)cc3F)c2cc1N1C[C@@H](C)N[C@@H](C)C1` showed a CL/F of 4 mL/min/kg. The Vd in data set [2] worked out at 1.6 L/kg. Further, in data set [3], the half-life is 4.4 h. In data set [4], this compound had a bioavailability of 61%.
The like results for `COc1cc2nnc(C(N)=O)c(Nc3ccc(C)cc3F)c2cc1N1CCCN(CCO)CC1` were, in that order, 66 mL/min/kg, 2.2 L/kg, 0.9 h and 4%.
The corresponding values for `COc1cc2nnc(C(N)=O)c(Nc3ccc(C)cc3F)c2cc1N1CCN(S(C)(=O)=O)CC1` are 22 mL/min/kg, 1.7 L/kg, 1.5 h and 3%.
The like results for `COc1cc2nnc(C(N)=O)c(Nc3ccc(C)cc3F)c2cc1N1CCN(C)CC1` were, in that order, 12 mL/min/kg, 3.8 L/kg, 5.7 h and 100%.
As for `COc1cc2nnc(C(N)=O)c(Nc3ccc(C)cc3F)c2cc1C1CCN(C(C)C)CC1`, the CL/F in data set [1] turned out to be 14 mL/min/kg. Further, the Vd in data set [2] is 2.6 L/kg. The half-life in data set [3] is 3.5 h. This compound yielded a bioavailability in data set [4] of 100%.
Consider `COCCN1CCN(c2cc3c(Nc4ccc(C)cc4F)c(C(N)=O)nnc3cc2OC)CC1`, for which the CL/F in data set [1] amounted to 21 mL/min/kg. In data set [2], the Vd was found to be 4.3 L/kg. The same compound had a half-life in data set [3] of 7.6 h. The compound also came in with a bioavailability in data set [4] of 3%.
Consider `COc1cc2nnc(C(N)=O)c(Nc3ccc(C)cc3F)c2cc1N1CCC(OC)CC1`, for which the CL/F in data set [1] was 58 mL/min/kg. Further, the Vd in data set [2] was 1.8 L/kg. Besides, the half-life in data set [3] is 0.6 h. The bioavailability in data set [4] amounted to 21%.
In turn, `COc1cc2nnc(C(N)=O)c(Nc3ccc(C)cc3F)c2cc1C1CCN(CCO)CC1` yielded a CL/F in data set [1] of 8 mL/min/kg. Also, the Vd in data set [2] amounted to 3.1 L/kg. Further, in data set [3], the half-life is 6.1 h. In addition, the bioavailability in data set [4] is 100%.
`COc1cc2nnc(C(N)=O)c(Nc3ccc(C)cc3F)c2cc1N1CCOCC1` returned a CL/F in data set [1] of 60 mL/min/kg. Further, in data set [2], the Vd was found to be 1.7 L/kg. In data set [3], this compound had a half-life of 0.5 h. The bioavailability in data set [4] is 25%.
In data set [1], `COc1cc2nnc(C(N)=O)c(Nc3ccc(C)cc3F)c2cc1N1CCN(C(=O)[C@@H](C)O)CC1` came in with a CL/F of 24 mL/min/kg. In data set [2], the Vd worked out at 1.3 L/kg. Besides, in data set [3], the half-life was 0.9 h. In data set [4], the bioavailability turned out to be 53%.
The corresponding values for `COc1cc2nnc(C(N)=O)c(Nc3ccc(C)cc3F)c2cc1N1CCC(N(C)C)CC1` are 34 mL/min/kg, 2.2 L/kg, 0.9 h and 15%.
Consider `COc1cc2nnc(C(N)=O)c(Nc3ccc(C)cc3F)c2cc1N1CCN(C(C)C)CC1`, for which, in data set [1], the CL/F stood at 17 mL/min/kg. In addition, the Vd in data set [2] is 3.8 L/kg. Also, the half-life in data set [3] was 2.5 h. In addition, the bioavailability in data set [4] came out at 100%.
The corresponding values for `COc1cc2nnc(C(N)=O)c(Nc3ccc(C)cc3F)c2cc1N1CCN(CCO)CC1` are 7 mL/min/kg, 2.2 L/kg, 3.1 h and 42%.
